According to patent publication US20230150978A1, “QUINAZOLINONE DERIVATIVES AND USES THEREOF FOR TREATING A CANCER” (ENYO PHARMA, priority 2020, published 2023):
Like-named read-outs stand apart in the source and are kept apart here.

Tests used:
Calreticulin = Calreticulin release (ER to plasma membrane translocation) screen, Nano-Glo HiBiT extracellular detection; format: cell-based; conditions: extracellular luminescence, read-out: CalR EC50
Experimental: (§1) Construction of pBiT3.1-Calreticulin Plasmid Calreticulin derived from pCMV6-AC plasmid (ref. SC320287, Origene) was amplified by PCR using the following set of primers: Seq ID No 3: forward, 5′-[…]-3′; Seq ID No 4: reverse, 5′-[…]-3′. The PCR fragment was subsequently digested by EcoRI and XhoI (R3101S and R0146S respectively, New England Biolabs) and inserted between the EcoRI and XhoI sites in the plasmid pBiT3.1-C(ref. N237A, Promega). The resulting plasmid (pBiT3.1-Calreticulin) was grown in NEB10-beta competent E. coli (ref. C3019I, New England Biolabs) and purified using the NucleoBond Xtra Midi Kit (ref. 740410, Macherey-Nagel).
Construction of Calreticulin Reporter Cell Line
(§2) pBiT3.1-Calreticulin was transfected in MDA-MB-231 cells (ref. ATCC HTB-2) using Lipofectamine 2000 reagent (ref. 11668, Invitrogen). Transfected cells were selected for blasticidin resistance (15 μg/ml, ref. Al 113903 Gibco) in medium containing DMEM 1× (ref. 1995065, Gibco) with 1% penicillin and streptomycin, and 10% fetal bovine serum.
Screen for Calreticulin-ER to Plasma Membrane Translocating Drugs
(§3) MDA-MB-231 cells stably expressing Calreticulin-HiBiT (10^4 cells/well) were seeded into white 96-well plates (ref.3917, Corning) and allowed to recover for 24h. […] Mitoxantrone dihydrochloride (ref. M6545, Sigma-Aldrich) was used as a positive control. Extracellular translocation of Calreticulin was measured using the Nano-Glo HiBiT extracellular detection system (ref. N2422, Promega). Nano-Glo HiBiT Extracellular Reagent was prepared in advance, added to the well and incubated 10 min.
Luminescence of the extracellular Calreticulin-HiBiT was quantified using the Spark 20M spectrofluorimeter (TECAN).

HMGB1 = HMGB1 release screen, Nano-Glo HiBiT extracellular detection; format: cell-based; conditions: extracellular luminescence
Experimental: Construction of pBiT3.1-HMGB1 Plasmid
as §1, with “HMGB1” for “Construction of pBiT3.1-Calreticulin Plasmid Calreticulin”, “pCMV6-AC-GFP” for “pCMV6-AC”, “RG205918,” for “SC320287,”, “1:” for “3:”, “2:” for “4:”, “(pBiT3.1-HMGB1)” for “(pBiT3.1-Calreticulin)”
Construction of HMGB1 Reporter Cell Line
as §2, with “pBiT3.1-HMGB1” for “pBiT3.1-Calreticulin”
Screen for HMGB1-Releasing Drugs
as §3, with “HMGB1-HiBiT” for “Calreticulin-HiBiT”, “HMGB1” for “Calreticulin”, “min. Luminescence of the extracellular HMGB1-HiBiT was quantified using the Spark 20M spectrofluorimeter (TECAN)” for “min.”

[1] = Homo sapiens, MDA-MB-231, MDA-MB-231 cells stably expressing Calreticulin-HiBiT
[2] = Homo sapiens, MDA-MB-231, MDA-MB-231 cells stably expressing HMGB1-HiBiT
[3] = MDA-MB-231 cells stably expressing Calreticulin-HiBiT
[4] = MDA-MB-231 cells stably expressing HMGB1-HiBiT

| Structure (SMILES) | EC50 (Calreticulin; [1]) | EC50 (HMGB1; [2]) | EC50 (Calreticulin; [3]) | EC50 (HMGB1; [4]) |
| --- | --- | --- | --- | --- |
| COc1ccc2nc(CN3CCc4c(Br)cccc4C3)[nH]c(=O)c2c1 [Ex. #18, 2-[(5-bromo-3,4-dihydro-1H-isoquinolin-2-yl)methyl]-6-methoxy-3H-quinazolin-4-one] | 2.06 µM | 9.36 µM | – | – |
| COc1ccc2nc(CN3CC(C)c4ccccc43)[nH]c(=O)c2c1 (single isomer, unassigned) [Ex. #5, 6-methoxy-2-[(3-methylindolin-1-yl)methyl]-3H-quinazolin-4-one] | – | – | 2.31 µM | 3.46 µM |
| Cc1cccc2c1N(Cc1nc3ccc(Cl)cc3c(=O)[nH]1)CC2 [Ex. #44, 6-chloro-2-[(7-methylindolin-1-yl)methyl]-3H-quinazolin-4-one] | 1.26 µM | 1.33 µM | – | – |
| COc1ccc2nc(CN3Cc4ccccc4C3)[nH]c(=O)c2c1 [Ex. #10, 2-(isoindolin-2-ylmethyl)-6-methoxy-3H-quinazolin-4-one] | 4.46 µM | 6.86 µM | – | – |
| O=c1[nH]c(CN2CCCc3ccccc32)nc2ccc(Cl)cc12 [Ex. #51, 6-chloro-2-(3,4-dihydro-2H-quinolin-1-ylmethyl)-3H-quinazolin-4-one] | 10.3 µM | 11.8 µM | – | – |
| COc1ccc2nc(CN3CCOc4cccc(OC)c43)[nH]c(=O)c2c1 [Ex. #14, 6-methoxy-2-[(5-methoxy-2,3-dihydro-1,4-benzoxazin-4-yl)methyl]-3H-quinazolin-4-one] | 1.96 µM | 2.16 µM | – | – |
| COc1ccc2nc(CN3CCCN(C)c4ccccc43)[nH]c(=O)c2c1 [Ex. 23, 6-methoxy-2-[(1-methyl-3,4-dihydro-2H-1,5-benzodiazepin-5-yl)methyl]-3H-quinazolin-4-one] | 1.96 µM | 2 µM | – | – |
| CC1CN(Cc2nc3ccc(Cl)cc3c(=O)[nH]2)c2ccccc21 (single isomer, unassigned) [Ex. #39, 6-chloro-2-[(3-methylindolin-1-yl)methyl]-3H-quinazolin-4-one] | – | – | 8.06 µM | 10.4 µM |
| O=c1[nH]c(CN2CC3(CCCC3)c3ccccc32)nc2ccc(Cl)cc12 [Ex. #42, 6-chloro-2-(spiro[cyclopentane-1,3′-indoline]-1′-ylmethyl)-3H-quinazolin-4-one] | 1.76 µM | 3.55 µM | – | – |
| COc1ccc2nc(CN3CCc4c(Cl)cccc4C3)[nH]c(=O)c2c1 [Ex. #20, 2-[(5-chloro-3,4-dihydro-1H-isoquinolin-2-yl)methyl]-6-methoxy-3H-quinazolin-4-one] | 4.26 µM | 10.8 µM | – | – |
| COc1ccc2nc(CN3CCCc4cccc(Cl)c43)[nH]c(=O)c2c1 [Ex. #12, 2-[(8-chloro-3,4-dihydro-2H-quinolin-1-yl)methyl]-6-methoxy-3H-quinazolin-4-one] | 0.522 µM | 0.751 µM | – | – |
| COc1ccc2nc(CN3CCCc4ccccc43)[nH]c(=O)c2c1 [Ex. #15, 2-(3,4-dihydro-2H-quinolin-1-ylmethyl)-6-methoxy-3H-quinazolin-4-one] | 1.06 µM | 3.34 µM | – | – |
| CC1Cc2ccccc2N1Cc1nc2ccc(Cl)cc2c(=O)[nH]1 (centres unmarked) [Ex. #41, 6-chloro-2-[(2-methylindolin-1-yl)methyl]-3H-quinazolin-4-one] | 8.01 µM | 9.61 µM | – | – |
| O=c1[nH]c(CN2CCc3ccccc32)nc2ccc(Cl)cc12 [Ex. #36, 6-chloro-2-(indolin-1-ylmethyl)-3H-quinazolin-4-one] | 1.8 µM | 1.01 µM | – | – |
| COc1cccc2c1N(Cc1nc3ccc(Cl)cc3c(=O)[nH]1)CC2 [Ex. #49, 6-chloro-2-[(7-methoxyindolin-1-yl)methyl]-3H-quinazolin-4-one] | 7.56 µM | 11.2 µM | – | – |
| COc1cccc2c1CCCN2Cc1nc2ccc(Cl)cc2c(=O)[nH]1 [Ex. #52, 6-chloro-2-[(5-methoxy-3,4-dihydro-2H-quinolin-1-yl)methyl]-3H-quinazolin-4-one] | 1.26 µM | 1.36 µM | – | – |
| Cc1cccc2c1CCN2Cc1nc2ccc(Cl)cc2c(=O)[nH]1 [Ex. #43, 6-chloro-2-[(4-methylindolin-1-yl)methyl]-3H-quinazolin-4-one] | 1.07 µM | 1.15 µM | – | – |

The next lines start with the values.

| EC50 (Calreticulin; [1]) | EC50 (HMGB1; [2]) | EC50 (Calreticulin; [3]) | EC50 (HMGB1; [4]) | Structure (SMILES) |
| --- | --- | --- | --- | --- |
| 9.71 µM | 14.6 µM | – | – | COc1ccc2c(c1)CCN2Cc1nc2ccc(Cl)cc2c(=O)[nH]1 [Ex. #144, 6-chloro-2-((5-methoxyindolin-1-yl)methyl)quinazolin-4(3H)-one] |
| 0.253 µM | 0.275 µM | – | – | CN(C)c1ccc2nc(CN3CCc4ccccc43)[nH]c(=O)c2c1 [Ex. #73, 6-(dimethylamino)-2-(indolin-1-ylmethyl)-3H-quinazolin-4-one] |
| 3.86 µM | 4.26 µM | – | – | CN1CCCN(Cc2nc3ccc(Cl)cc3c(=O)[nH]2)c2ccccc21 [Ex. #63, 6-chloro-2-[(1-methyl-3,4-dihydro-2H-1,5-benzodiazepin-5-yl)methyl]-3H-quinazolin-4-one] |
| 0.0975 µM | 0.0975 µM | – | – | O=c1[nH]c(CN2CCc3ccccc32)nc2ccc(C3CC3)cc12 [Ex. #99, 6-cyclopropyl-2-(indolin-1-ylmethyl)-3H-quinazolin-4-one] |
| 0.695 µM | 2.63 µM | – | – | Cc1ccc2nc(CN3CCc4ccccc43)[nH]c(=O)c2c1 [Ex. #84, 2-(indolin-1-ylmethyl)-6-methyl-3H-quinazolin-4-one] |
| 12 µM | 14.5 µM | – | – | O=c1[nH]c(CN2CCc3ccccc32)nc2cc(F)ccc12 [Ex. #138, 7-fluoro-2-(indolin-1-ylmethyl)-3H-quinazolin-4-one] |
| 0.518 µM | 0.858 µM | – | – | COCC1CCN(c2ccc3nc(CN4CCc5ccccc54)[nH]c(=O)c3c2)C1 (centres unmarked) [Ex. #103, 2-(indolin-1-ylmethyl)-6-[3-(methoxymethyl)pyrrolidin-1-yl]-3H-quinazolin-4-one] |
| 7.36 µM | 7.56 µM | – | – | COCCOc1ccc2nc(CN3CC(C)(C)c4ccccc43)[nH]c(=O)c2c1 [Ex. #97, 2-[(3,3-dimethylindolin-1-yl)methyl]-6-(2-methoxyethoxy)-3H-quinazolin-4-one] |
| 4.41 µM | 7.51 µM | – | – | O=c1[nH]c(CN2CCc3ccccc3C2)nc2ccc(Cl)cc12 [Ex. #59, 6-chloro-2-(3,4-dihydro-1H-isoquinolin-2-ylmethyl)-3H-quinazolin-4-one] |
| 1.38 µM | 1.17 µM | – | – | O=c1[nH]c(CN2CCc3ccccc32)nc2ccc(OC(F)(F)F)cc12 [Ex. #82, 2-(indolin-1-ylmethyl)-6-(trifluoromethoxy)-3H-quinazolin-4-one] |
| 0.96 µM | 1.06 µM | – | – | O=c1[nH]c(CN2CCCCc3ccccc32)nc2ccc(Cl)cc12 [Ex. #62, 6-chloro-2-(2,3,4,5-tetrahydro-1-benzazepin-1-ylmethyl)-3H-quinazolin-4-one] |
| 2.46 µM | 5.31 µM | – | – | O=c1[nH]c(CN2CCCOc3ccccc32)nc2ccc(Cl)cc12 [Ex. #64, 6-chloro-2-(3,4-dihydro-2H-1,5-benzoxazepin-5-ylmethyl)-3H-quinazolin-4-one] |
| 4.61 µM | 7.86 µM | – | – | CC(c1nc2ccc(Cl)cc2c(=O)[nH]1)N1CCc2ccccc21 (centres unmarked) [Ex. #120, 6-chloro-2-(1-indolin-1-ylethyl)-3H-quinazolin-4-one] |
| 8.46 µM | 11.1 µM | – | – | O=c1[nH]c(CN2CCc3ccccc32)nc2ccc(N3CCCCC3)cc12 [Ex. #106, 2-(indolin-1-ylmethyl)-6-(1-piperidyl)-3H-quinazolin-4-one] |
